# Test results from patent publication US10246461B2, “Dosage form compositions comprising an inhibitor of bruton's tyrosine kinase” (Genentech, Inc., priority 2016, dated 2019).
# Read-outs that look alike come from different tables or passages of the source.
# Assays:
# [1] = Solubility of compound (I) free base in buffers of varying pH, FeSSIF and FaSSIF; format: physicochemical
# [2] = Human PK, second comparative study: single dose food and PPI assessment of 100 mg powder-in-capsule (Panels J-M); format: in vivo; details: 100 mg PIC single dose
# Text: The protocol is detailed Table 24 below wherein each panel contained 10 human subjects.
# [3] = Two-stage non-sink dissolution assay (kinetic solubility) of ASD formulations and unformulated API: simulated gastric media then FaSSIF; format: physicochemical; details: pH 1 gastric media, dosed concentration of about 2000 ug/mL
# Method: The assay was performed in a modified USP II apparatus (paddles). The experiment measured the total drug dissolved in the presence of excess solid API (non-sink conditions), which included a combination of ‘free’ and colloidal or polymer-bound drug in solution. In some evaluations—to simulate the relatively high pH gastric environment in patients taking proton pump inhibitors—different simulated gastric media were used to begin the two-stage experiment: either pH 1 (HCl buffer) or pH 4 or 5 (acetate buffers) at a nominal compound (I) concentration of 2.0 mg/mL. In some other experiments, acetate buffer was replaced with a dilute HCl solution at similar pH, to better mimic the expected in vivo environment. After 30 minutes, the test material was transferred to fasted-state simulated intestinal fluid (FaSSIF) media consisting of physiologically relevant bile salts (SIF Powder, Biorelevant Inc.) in 100 mM phosphate buffer, and the compound (I) concentration was diluted to 1.0 mg/mL. pH of the phosphate buffer was adjusted as needed to obtain a simulated intestinal pH of 6.8±0.1 in the second stage of the dissolution experiment. The test material was sampled periodically throughout the test and samples were centrifuged at 13,000 r/min. The supernatant was diluted 1:1 with sample diluent and the compound (I) concentration was measured by HPLC. […]
# [4] = Dissolution of compound (I) mesylate salt vs free base in pH 4.5 aqueous media; format: physicochemical; details: 100 mg in 2 mL pH 4.5 aqueous media, 37° C.
# [5] = Panel K: high fat breakfast, no PPI
# [6] = Panel L: fasted + rabeprazole 20 mg BID
# [7] = Panel M: high fat breakfast + rabeprazole 20 mg BID
compound,measurement,setting,value
"CC1CN(C2COC2)CCN1c1ccc(Nc2cc(-c3ccnc(N4CCn5c(cc6c5CC(C)(C)C6)C4=O)c3CO)cn(C)c2=O)nc1 [Compound (A), (R)-2-(3′-(hydroxymethyl)-1-methyl-5-((5-(2-methyl-4-(oxetan-3-yl)piperazin-1-yl)pyridin-2-yl)amino)-6-oxo-1,6-dihydro-[3,4′-bipyridin]-2′-yl)-7,7-dimethyl-2,3,4,6,7,8-hexahydro-1H-cyclopenta[4,5]pyrrolo[1,2-a]pyrazin-1-one]",solubility,"[1]; aqueous buffer, pH 2.6, aqueous buffer, read-out: aqueous solubility",~6500 µg/mL
same,solubility,"[1]; aqueous buffer, pH 5.0, read-out: solubility",~1 µg/mL
"C[C@H]1CN(C2COC2)CCN1c1ccc(Nc2cc(-c3ccnc(N4CCn5c(cc6c5CC(C)(C)C6)C4=O)c3CO)cn(C)c2=O)nc1 [Compound (I) free base, (S)-2-(3′-(hydroxymethyl)-1-methyl-5-((5-(2-methyl-4-(oxetan-3-yl)piperazin-1-yl)pyridin-2-yl)amino)-6-oxo-1,6-dihydro-[3,4′-bipyridin]-2′-yl)-7,7-dimethyl-2,3,4,6,7,8-hexahydro-1H-cyclopenta[4,5]pyrrolo[1,2-a]pyrazin-1-one]",solubility,"[1]; FaSSIF (pH 6.8), read-out: Solubility",13 µg/mL
same,solubility,"[1]; FeSSIF (pH 5), read-out: Solubility",18 µg/mL
same,solubility,"[1]; aqueous buffer, pH 2.54, aqueous buffer, read-out: Solubility",35900 µg/mL
same,solubility,"[1]; aqueous buffer, pH 2.6, aqueous buffer, pH 2.60, read-out: Solubility",6480 µg/mL
same,solubility,"[1]; aqueous buffer, pH 3.8, aqueous buffer, pH 3.80, read-out: Solubility",36 µg/mL
same,solubility,"[1]; aqueous buffer, pH 5.04, aqueous buffer, read-out: Solubility",1 µg/mL
same,solubility,"[1]; aqueous buffer, pH 6.94, aqueous buffer, read-out: Solubility",1 µg/mL
same,solubility,"[1]; aqueous buffer, pH 7.76, aqueous buffer, read-out: Solubility",1 µg/mL
same,"plasma AUCinf, Mean","[2]; Panel J: fasted, no PPI",1.073 µM·h
same,"plasma HL-Lambda-z, Mean","[2]; Panel J: fasted, no PPI",16 h
same,"plasma HL-Lambda-z, Median","[2]; Panel J: fasted, no PPI",13 h
same,"plasma AUCinf, Mean",[2]; [5],1.701 µM·h
same,"plasma HL-Lambda-z, Mean",[2]; [5],9.82 h
same,"plasma HL-Lambda-z, Median",[2]; [5],9.7 h
same,"plasma HL-Lambda-z, Mean",[2]; [6],12.8 h
same,"plasma HL-Lambda-z, Median",[2]; [6],11 h
same,"plasma HL-Lambda-z, Mean",[2]; [7],13.4 h
same,"plasma HL-Lambda-z, Median",[2]; [7],12 h
same,Cmax,"[2]; Panel M: high fat breakfast + rabeprazole 20 mg BID, read-out: plasma Cmax, Mean",41 nM
same,AUC(0-t),"[2]; plasma, oral, Panel L: fasted + rabeprazole 20 mg BID, read-out: plasma AUC0-24, Mean",0.157 µM·h
same,AUC(0-t),"[2]; plasma, oral, Panel L: fasted + rabeprazole 20 mg BID, read-out: plasma AUC0-24, Median",0.16 µM·h
same,AUC(0-inf),"[2]; plasma, oral, Panel L: fasted + rabeprazole 20 mg BID, read-out: plasma AUCinf, Mean",0.274 µM·h
same,AUC(0-inf),"[2]; plasma, oral, Panel L: fasted + rabeprazole 20 mg BID, read-out: plasma AUCinf, Median",0.27 µM·h
same,AUC(0-t),"[2]; plasma, oral, Panel L: fasted + rabeprazole 20 mg BID, read-out: plasma AUClast, Mean",0.261 µM·h
same,AUC(0-t),"[2]; plasma, oral, Panel L: fasted + rabeprazole 20 mg BID, read-out: plasma AUClast, Median",0.27 µM·h
same,Cmax,"[2]; plasma, oral, Panel L: fasted + rabeprazole 20 mg BID, read-out: plasma Cmax, Mean",11.6 nM
same,Cmax,"[2]; plasma, oral, Panel L: fasted + rabeprazole 20 mg BID, read-out: plasma Cmax, Median",12 nM
same,Tmax,"[2]; plasma, oral, Panel L: fasted + rabeprazole 20 mg BID, read-out: plasma Tmax, Mean",5.7 h
same,Tmax,"[2]; plasma, oral, Panel L: fasted + rabeprazole 20 mg BID, read-out: plasma Tmax, Median",4 h
same,AUC(0-t),"[2]; plasma, oral, Panel M: high fat breakfast + rabeprazole 20 mg BID, read-out: plasma AUC0-24, Mean",0.471 µM·h
same,AUC(0-t),"[2]; plasma, oral, Panel M: high fat breakfast + rabeprazole 20 mg BID, read-out: plasma AUC0-24, Median",0.52 µM·h
same,AUC(0-inf),"[2]; plasma, oral, Panel M: high fat breakfast + rabeprazole 20 mg BID, read-out: plasma AUCinf, Mean",0.657 µM·h
same,AUC(0-inf),"[2]; plasma, oral, Panel M: high fat breakfast + rabeprazole 20 mg BID, read-out: plasma AUCinf, Median",0.67 µM·h
same,AUC(0-t),"[2]; plasma, oral, Panel M: high fat breakfast + rabeprazole 20 mg BID, read-out: plasma AUClast, Mean",0.642 µM·h
same,AUC(0-t),"[2]; plasma, oral, Panel M: high fat breakfast + rabeprazole 20 mg BID, read-out: plasma AUClast, Median",0.66 µM·h
same,Cmax,"[2]; plasma, oral, Panel M: high fat breakfast + rabeprazole 20 mg BID, read-out: plasma Cmax, Mean",40.6 nM
same,Cmax,"[2]; plasma, oral, Panel M: high fat breakfast + rabeprazole 20 mg BID, read-out: plasma Cmax, Median",40 nM
same,Tmax,"[2]; plasma, oral, Panel M: high fat breakfast + rabeprazole 20 mg BID, read-out: plasma Tmax, Mean",6.9 h
same,Tmax,"[2]; plasma, oral, Panel M: high fat breakfast + rabeprazole 20 mg BID, read-out: plasma Tmax, Median",7 h
same,AUC(0-t),"[2]; plasma, oral, 100 mg, Panel J: fasted, no PPI, read-out: plasma AUC0-24, Mean",0.967 µM·h
same,AUC(0-t),"[2]; plasma, oral, 100 mg, Panel J: fasted, no PPI, read-out: plasma AUC0-24, Median",0.98 µM·h
same,AUC(0-inf),"[2]; plasma, oral, 100 mg, Panel J: fasted, no PPI, read-out: plasma AUCinf, Mean",1.07 µM·h
same,AUC(0-inf),"[2]; plasma, oral, 100 mg, Panel J: fasted, no PPI, read-out: plasma AUCinf, Median",1.1 µM·h
same,AUC(0-t),"[2]; plasma, oral, 100 mg, Panel J: fasted, no PPI, read-out: plasma AUClast, Mean",1.06 µM·h
same,AUC(0-t),"[2]; plasma, oral, 100 mg, Panel J: fasted, no PPI, read-out: plasma AUClast, Median",1 µM·h
same,Cmax,"[2]; plasma, oral, 100 mg, Panel J: fasted, no PPI, read-out: plasma Cmax, Mean",218 nM
same,Cmax,"[2]; plasma, oral, 100 mg, Panel J: fasted, no PPI, read-out: plasma Cmax, Median",200 nM
same,Tmax,"[2]; plasma, oral, 100 mg, Panel J: fasted, no PPI, read-out: plasma Tmax, Mean",1.5 h
same,Tmax,"[2]; plasma, oral, 100 mg, Panel J: fasted, no PPI, read-out: plasma Tmax, Median",1.5 h
same,AUC(0-t),"[2]; plasma, oral, 100 mg, Panel K: high fat breakfast, no PPI, read-out: plasma AUC0-24, Mean",1.56 µM·h
same,AUC(0-t),"[2]; plasma, oral, 100 mg, Panel K: high fat breakfast, no PPI, read-out: plasma AUC0-24, Median",1.5 µM·h
same,AUC(0-inf),"[2]; plasma, oral, 100 mg, Panel K: high fat breakfast, no PPI, read-out: plasma AUCinf, Mean",1.7 µM·h
same,AUC(0-inf),"[2]; plasma, oral, 100 mg, Panel K: high fat breakfast, no PPI, read-out: plasma AUCinf, Median",1.6 µM·h
same,AUC(0-t),"[2]; plasma, oral, 100 mg, Panel K: high fat breakfast, no PPI, read-out: plasma AUClast, Mean",1.69 µM·h
same,AUC(0-t),"[2]; plasma, oral, 100 mg, Panel K: high fat breakfast, no PPI, read-out: plasma AUClast, Median",1.6 µM·h
same,Cmax,"[2]; plasma, oral, 100 mg, Panel K: high fat breakfast, no PPI, read-out: plasma Cmax, Mean",235 nM
same,Cmax,"[2]; plasma, oral, 100 mg, Panel K: high fat breakfast, no PPI, read-out: plasma Cmax, Median",250 nM
same,Tmax,"[2]; plasma, oral, 100 mg, Panel K: high fat breakfast, no PPI, read-out: plasma Tmax, Mean",4 h
same,Tmax,"[2]; plasma, oral, 100 mg, Panel K: high fat breakfast, no PPI, read-out: plasma Tmax, Median",4 h
same,kinetic dissolution in gastric media,[3],fully dissolved
same,% dissolved,[4]; 15 min,0%
same,% dissolved,[4]; 30 min,0.5%
same,% dissolved,[4]; 45 min,2.3%
same,% dissolved,[4]; 60 min,4.1%
